Converted amounts (≈) assume the structure as drawn.
Key:
S. pneumoniae 11733 = assay: Minimum Inhibitory Concentration (MIC), broth dilution method; type: cell-based; details: Streptococcus pneumoniae, 11733, read-out: MIC S. pneumoniae 11733
Method: (§1) Minimum Inhibitory Concentration (MIC), Broth Dilution Method:
(§2) The compounds of the present invention were tested against selected Gram positive and Gram negative organisms using standard microtitration techniques well known to those skilled in the art. Cultures of bacteria were initially applied by streaking a loopful onto agar plates under the appropriate conditions. For example, bacterial stocks are streaked for isolation of single colonies onto chocolate agar and then incubated for 18 hours at 35-37° C. in a 5% CO2 incubator. Five to ten colonies were picked from the chocolate agar plate for subculture to Brain-Heart infusion (BHI) broth, Mueller Hinton broth, or BHI containing 4% serum, and incubated under the appropriate conditions. The ability of the test compound to act as an antimicrobial was determined by the ability of dilutions of the test substance to inhibit bacterial growth in vitro. The optical density of the culture of organisms in the presence of an active compound was compared to the optical density of the same organism grown without test compound. The activity of the compounds is described as either negative or the lowest concentration inhibiting growth (Minimum Inhibitory Concentration [MIC]).
(§3) The activity of selected compounds of the present invention against representative Gram positive and Gram negative bacteria are shown in the following Table 1.

S. aureus 29213 = assay: as above; type: cell-based; details: Staphylococcus aureus, 29213, read-out: MIC S. aureus 29213
Method: as §1, §2, §3

B. cereus = assay: as above; type: cell-based; details: Bacillus cereus, read-out: MIC B. cereus
Method: as §1, §2, §3

B.anthracis V770-NR1-R = assay: microbe, parasite or virus in culture; type: cell-based; details: Bacillus anthracis, V770NR1R, read-out: MIC B.anthracis V770-NR1-R

SMILES | melting point [°C] | MIC (S. pneumoniae 11733) [µg/mL] | MIC (S. aureus 29213) [µg/mL] | MIC (B. cereus) [µg/mL] | MIC (B.anthracis V770-NR1-R) [µg/mL]
N#Cc1cc(Cl)ccc1Oc1cc(N2CCOCC2)c(F)cc1O | 149 to 151 |  |  |  | 
O=C(O)c1cc(Oc2ccc(Cl)cc2Cl)c(O)cc1Cl | 192 to 196 |  |  |  | 
Oc1cc(Cl)c(N2CCOCC2)cc1Oc1ccc(Cl)cc1Cl [Example 1, 5-Chloro-2-(2,4-dichlorophenoxy)-4-morpholin-4-yl-phenol] | 187 to 188 | 1000 (≈ 2670 µM) | 500 (≈ 1330 µM) | 800 (≈ 2140 µM) | 1600 (≈ 4270 µM)
CN1CCN(c2cc(Oc3ccc(Cl)cc3Cl)c(O)cc2Cl)CC1 [Example 2, 5-Chloro-2-(2,4-dichloro-phenoxy)-4-(4-methyl-piperazin-1-yl)-phenol] |  | 250 (≈ 645 µM) | 60 (≈ 155 µM) | > 25000 | > 25000
Oc1cc(Cl)c(-c2cccs2)cc1Oc1ccc(Cl)cc1Cl [Example 3, 5-Chloro-2-(2,4-dichloro-phenoxy)-4-thiophen-2-yl-phenol] |  | 10 (≈ 26.9 µM) | 60 (≈ 161 µM) | 50 (≈ 135 µM) | 50 (≈ 135 µM)
Oc1cc(Cl)c(-c2ccco2)cc1Oc1ccc(Cl)cc1Cl [Example 4, 5-Chloro-2-(2,4-dichloro-phenoxy)-4-furan-2-yl-phenol] |  | 500 (≈ 1410 µM) | 500 (≈ 1410 µM) |  | 
Oc1cc(Cl)c(-c2ccsc2)cc1Oc1ccc(Cl)cc1Cl [Example 5, 5-Chloro-2-(2,4-dichloro-phenoxy)-4-thiophen-3-yl-phenol] |  | 10 (≈ 26.9 µM) | 130 (≈ 350 µM) | 200 (≈ 538 µM) | 400 (≈ 1080 µM)
OB(O)c1cc(Oc2ccc(Cl)cc2Cl)c(O)cc1Cl [Example 6, 2-Chloro-5-(2,4-dichloro-phenoxy)-4-hydroxy-phenylboronic acid] | 180 to 183 |  | 500 (≈ 1500 µM) |  | 
CCOC(=O)NC(=S)Nc1ccc(O)c(Oc2ccccc2O)c1 [Example 9, 1-[4-Hydroxy-3-(2-hydroxy-phenoxy)-phenyl]-3-(ethylozycarbonyl)thiourea] |  | 62500 (≈ 179000 µM) | 31300 (≈ 89800 µM) | 12500 (≈ 35900 µM) | 3100 (≈ 8900 µM)
COc1ccc(NC(=S)Nc2cc(Oc3ccc(Cl)cc3Cl)c(O)cc2Cl)cc1 [Example 11, 1-[2-Chloro-5-(2,4-dichloro-phenoxy)-4-hydroxy-phenyl]-3-(4-methoxy-phenyl)-thiourea] |  | 31300 (≈ 66600 µM) | 7900 (≈ 16800 µM) |  | 
Oc1cc(Cl)c(NC(=S)NC2CCCCC2)cc1Oc1ccc(Cl)cc1Cl [Example 12, 1-[2-Chloro-5-(2,4-dichloro-phenoxy)-4-hydroxy-phenyl]-3-cyclohexyl-thiourea] |  | 31300 (≈ 70200 µM) | 2000 (≈ 4490 µM) |  | 
O=[N+]([O-])c1ccc(NC(=S)Nc2cc(Oc3ccc(Cl)cc3Cl)c(O)cc2Cl)cc1 [Example 13, 1-[2-Chloro-5-(2,4-dichloro-phenoxy)-4-hydroxy-phenyl]-3-(4-nitro-phenyl)-thiourea] |  | 15600 (≈ 32200 µM) | 1000 (≈ 2060 µM) |  | 
O=C(Nc1cc(C(F)(F)F)cc(C(F)(F)F)c1)Nc1cc(Oc2ccc(Cl)cc2Cl)c(O)cc1Cl [Example 15, 1-(3,5-Bis-trifluoromethyl-phenyl)-3-[2-chloro-5-(2,4-dichloro-phenoxy)-4-hydroxy-phenyl]-urea] |  |  | 4000 (≈ 7150 µM) | 100 (≈ 179 µM) | 800 (≈ 1430 µM)
Oc1cc(Cl)c(NC(=S)Nc2cc(C(F)(F)F)cc(C(F)(F)F)c2)cc1Oc1ccc(Cl)cc1Cl [Example 16, 1-(3,5-Bis-trifluoromethyl-phenyl)-3-[2-chloro-5-(2,4-dichloro-phenoxy)-4-hydroxy-phenyl]-thiourea] |  |  | 500 (≈ 868 µM) | 100 (≈ 174 µM) | 200 (≈ 347 µM)
Oc1cc(Cl)c(-n2cccc2)cc1Oc1ccc(Cl)cc1Cl [Example 17, 5-Chloro-2-(2,4-dichloro-phenoxy)-4-pyrrol-1-yl-phenol] | 86 to 87 |  | 250 (≈ 705 µM) | 50 (≈ 141 µM) | 100 (≈ 282 µM)
N#Cc1ccccc1Oc1cc(-n2cccc2)ccc1O [Example 18, 2-(2-Hydroxy-5-pyrrol-1-yl-phenoxy)-benzonitrile] |  | 4000 (≈ 14500 µM) | 4000 (≈ 14500 µM) | > 25000 | > 25000
O=C(Nc1cc(Oc2ccc(Cl)cc2Cl)c(O)cc1Cl)c1ccco1 [Example 20, Furan-2-carboxylic acid [2-chloro-5-(2,4-dichloro-phenoxy)-4-hydroxy-phenyl]-amide] |  | 2000 (≈ 5020 µM) | 4000 (≈ 10000 µM) | > 25000 | > 25000
Cc1nnsc1C(=O)Nc1cc(Oc2ccc(Cl)cc2Cl)c(O)cc1Cl [Example 21, 4-Methyl-[1,2,3]thiadiazole-5-carboxylic acid [2-chloro-5-(2,4-dichloro-phenoxy)-4-hydroxy-phenyl]-amide] |  | 4000 (≈ 9290 µM) | 4000 (≈ 9290 µM) |  | 
Cc1cc(C(=O)Nc2cc(Oc3ccc(Cl)cc3Cl)c(O)cc2Cl)no1 [Example 22, 5-Methyl-isoxazole-3-carboxylic acid [2-chloro-5-(2,4-dichloro-phenoxy)-4-hydroxy-phenyl]-amide] |  | 500 (≈ 1210 µM) | 2000 (≈ 4840 µM) |  | 
CC(=O)Nc1nc(C)c(S(=O)(=O)Nc2cc(Oc3ccc(Cl)cc3Cl)c(O)cc2Cl)s1 [Example 23, N-{5-[2-Chloro-5-(2,4-dichloro-phenoxy)-4-hydroxy-phenylsulfamoyl]-4-methyl-thiazol-2-yl}-acetamide] |  | 15700 (≈ 30000 µM) | 4000 (≈ 7650 µM) |  | 
Cc1cc(O)c(Oc2ccccc2C#N)cc1-c1cccs1 [Example 26, 2-(2-Hydroxy-4-methyl-5-thiophen-2-yl-phenoxy)-benzonitrile] |  | 500 (≈ 1630 µM) | 4000 (≈ 13000 µM) | 12500 (≈ 40700 µM) | 12500 (≈ 40700 µM)
Cc1cc(O)c(Oc2ccccc2C#N)cc1-c1ccsc1 [Example 27, 2-(2-Hydroxy-4-methyl-5-thiophen-3-yl-phenoxy)-benzonitrile] |  | > 25000 | 6200 (≈ 20200 µM) | 800 (≈ 2600 µM) | 1600 (≈ 5210 µM)
Cc1cc(O)c(Oc2ccccc2C#N)cc1-c1ccco1 [Example 28, 2-(5-Furan-2-yl-2-hydroxy-4-methyl-phenoxy)-benzonitrile] |  | 500 (≈ 1720 µM) | 2000 (≈ 6870 µM) | 1600 (≈ 5490 µM) | 800 (≈ 2750 µM)
Cc1cc(O)c(Oc2ccccc2C#N)cc1-n1cccc1 [Example 29, 2-(2-Hydroxy-4-methyl-5-pyrrol-1-yl-phenoxy)-benzonitrile] | 158 to 160 | 500 (≈ 1720 µM) | 62500 (≈ 215000 µM) | 4000 (≈ 13800 µM) | 
Cc1cc(O)c(Oc2ccccc2C#N)cc1N1CCOCC1 [Example 31, 2-(2-Hydroxy-4-methyl-5-morpholin-4-yl-phenoxy)-benzonitrile] |  | 4000 (≈ 12900 µM) | 7900 (≈ 25500 µM) | 3100 (≈ 9990 µM) | 6200 (≈ 20000 µM)
Oc1cc(Cl)c(-c2nnn[nH]2)cc1Oc1ccc(Cl)cc1Cl [Example 33, 5-Chloro-2-(2,4-dichloro-phenoxy)-4-(1H-tetrazol-5-yl)-phenol] | 174 to 180 |  | 200 (≈ 559 µM) | 6200 (≈ 17300 µM) | 12500 (≈ 35000 µM)
N/C(=N/O)c1cc(Oc2ccc(Cl)cc2Cl)c(O)cc1Cl [Example 34, 2-Chloro-5-(2,4-dichloro-phenoxy)-4,N-dihydroxy-benzamidine] | 137 |  | 100 (≈ 288 µM) | 100 (≈ 288 µM) | 200 (≈ 575 µM)
CCOC(=O)c1nc(-c2cc(Oc3ccc(Cl)cc3Cl)c(O)cc2Cl)no1 [Example 35, 3-[2-Chloro-5-(2,4-dichloro-phenoxy)-4-hydroxy-phenyl][1,2,4]oxadiazole-5-carboxylic acid ethyl ester] | 130 |  | 200 (≈ 466 µM) | 100 (≈ 233 µM) | 100 (≈ 233 µM)
O=C(O)c1nc(-c2cc(Oc3ccc(Cl)cc3Cl)c(O)cc2Cl)no1 [Example 36, 3-[2-Chloro-5-(2,4-dichloro-phenoxy)-4-hydroxy-phenyl]-[1,2,4]oxadiazole-5-carboxylic acid] | 115 |  | 200 (≈ 498 µM) | 100 (≈ 249 µM) | 50 (≈ 125 µM)

— patent publication US20070054884A1 (priority 2005, published 2007)
